# Data reported in patent US9062002B2, “Substituted pyridine derivatives as FabI inhibitors” (Aurigene Discovery Technologies Limited, priority 2011, dated 2015).
# Read-outs that look alike come from different tables or passages of the source.
# Key:
# MSSA = experiment: MIC by broth microdilution method; type: cell-based; details: for MIC: Staphylococcus aureus, MRSA / MSSA, read-out: MIC Vs MRSA (μg/ml) MSSA
# MRSA = experiment: MIC by broth microdilution method; type: cell-based; details: for MIC: Staphylococcus aureus, read-out: MIC Vs MRSA (μg/ml) MRSA
# MRSE = experiment: MIC by broth microdilution method; type: cell-based; details: for MIC: Staphylococcus epidermidis, MRSA / MRSE, read-out: MIC Vs MRSA (μg/ml) MRSE
# [1] = Metabolic stability study in mouse liver microsomes; type: in vitro ADME; details: 1 μM, 37° C.
# Experimental: The above selected compounds have protected mice from infection at ED50 doses. Metabolic Stability Study: In vitro metabolic stability of the compounds was done in mouse liver microsomes prepared in house as per standard protocol. Compounds were tested at 1 μM concentration. Compounds were incubated for 15 and 60 minutes at 37° C. with 100 rpm in shaker bath. After the incubation samples were analysed by LC/MS (API-4000). Respective control (Propranalol) was included in the study.
# Fab I = details: 1 μM compound
Percentage of compound remained after 15 min [1],Percentage of compound remained after 60 min [1],Compound,MIC Vs MRSA (μg/ml) MSSA (MSSA),MIC Vs MRSA (μg/ml) MRSA (MRSA),MIC Vs MRSA (μg/ml) MRSE (MRSE),FAB-I inhibition %@1 μM (Fab I),also measured
55.7%,37.6%,"CC(C)(C)OC(=O)N1CCC2(CC1)Cc1cc(/C=C/C(=O)N3CC=C(Cc4cccs4)CC3)cnc1NC2=O [Compound 94, (E)-tert-butyl 2-oxo-6-(3-oxo-3-(4-(thiophen-2-ylmethyl)-5,6-dihydropyridin-1(2H)-yl)prop-1-en-1-yl)-2,4-dihydro-1H-spiro[[1,8]naphthyridine-3,4′-piperidine]-1′-carboxylate]",–,–,–,–,"MIC (MSSA; MSSA, broth microdilution): 0.5 µg/mL; MIC (MRSA; MRSA, broth microdilution): 0.5 µg/mL; MIC (MRSE; MRSE, broth microdilution): 1 µg/mL"
4.0%,2.2%,"O=C(/C=C/c1cnc2c(c1)CN(CCN1CCC3(CC1)COC3)C(=O)N2)N1CC=C(Cc2cccs2)CC1 [Compound 147, (E)-3-(2-(2-oxa-7-azaspiro[3.5]nonan-7-yl)ethyl)-6-(3-oxo-3-(4-(thiophen-2-ylmethyl)-5,6-dihydropyridin-1(2H)-yl)prop-1-en-1-yl)-3,4-dihydropyrido[2,3-d]pyrimidin-2(1H)-one]",–,–,–,–,–
–,–,O=C1CCc2cc(/C=C/C(=O)N3CC=C(Cc4cccs4)CC3)cnc2N1 [Compound 84],0.125 µg/mL,0.25 µg/mL,0.25 µg/mL,100%,–
–,–,"O=C1CNCc2cc(/C=C/C(=O)N3CC=C(Cc4cccs4)CC3)cnc2N1 [Compound 92, (E)-7-(3-oxo-3-(4-(thiophen-2-ylmethyl)-5,6-dihydropyridin-1(2H)-yl)prop-1-en-1-yl)-4,5-dihydro-1H-pyrido[2,3-e][1,4]diazepin-2(3H)-one]",–,–,–,–,"MIC (MSSA; MSSA, broth microdilution): 0.12 µg/mL; MIC (MRSA; MRSA, broth microdilution): 0.25 µg/mL; MIC (MRSE; MRSE, broth microdilution): 0.25 µg/mL"
–,–,O=C1CCc2cc(/C=C/C(=O)N3CC=C(Cc4ccccc4F)CC3)cnc2N1 [Compound 66],0.25 µg/mL,0.25 µg/mL,0.25 µg/mL,84%,–
21.6%,7.3%,"NC(=O)N1CCC2(CC1)Cc1cc(/C=C/C(=O)N3CC=C(Cc4cccs4)CC3)cnc1NC2=O [Compound 139, (E)-2-oxo-6-(3-oxo-3-(4-(thiophen-2-ylmethyl)-5,6-dihydropyridin-1(2H)-yl)prop-1-en-1-yl)-2,4-dihydro-1H-spiro[[1,8]naphthyridine-3,4′-piperidine]-1′-carboxamide]",–,–,–,–,–
–,–,O=C1CCc2cc(/C=C/C(=O)N3CC=C(COc4ccc(Cl)cc4)CC3)cnc2N1 [Compound 113],–,–,–,36%,"MIC Vs MRSA (μg/ml) MSSA (MSSA; MSSA, broth microdilution): >128 µg/mL; MIC Vs MRSA (μg/ml) MRSA (MRSA; MRSA, broth microdilution): >128 µg/mL; MIC Vs MRSA (μg/ml) MRSE (MRSE; MRSE, broth microdilution): >128 µg/mL"
–,–,O=C1CCc2cc(/C=C/C(=O)N3CC=C(Cc4sccc4Cl)CC3)cnc2N1 [Compound 87],0.5 µg/mL,0.5 µg/mL,0.5 µg/mL,69.05%,–
–,–,O=C1CCc2cc(/C=C/C(=O)N3CC=C(c4ccc(F)cc4)CC3)cnc2N1 [Compound 8],–,–,–,108%,"MIC Vs MRSA (μg/ml) MSSA (MSSA; MSSA, broth microdilution): 2 µg/mL; MIC Vs MRSA (μg/ml) MRSA (MRSA; MRSA, broth microdilution): 2 µg/mL; MIC Vs MRSA (μg/ml) MRSE (MRSE; MRSE, broth microdilution): 8 µg/mL"
44.3%,10.2%,"O=C(/C=C/c1cnc2c(c1)CC1(CCN(C(=O)CO)CC1)C(=O)N2)N1CC=C(Cc2cccs2)CC1 [Compound 138, (E)-1′-(2-hydroxyacetyl)-6-(3-oxo-3-(4-(thiophen-2-ylmethyl)-5,6-dihydropyridin-1(2H)-yl)prop-1-en-1-yl)-1H-spiroa[[1,8]naphthyridine-3,4′-piperidin]-2(4H)-one]",–,–,–,–,–
86.8%,57.1%,Cc1cnc(CC2=CCN(C(=O)/C=C/c3cnc4c(c3)CCC(=O)N4)CC2)s1 [Compound 57],–,–,–,–,–

Compound,Percentage of compound remained after 15 min [1],Percentage of compound remained after 60 min [1],MIC Vs MRSA (μg/ml) MSSA (MSSA),MIC Vs MRSA (μg/ml) MRSA (MRSA),MIC Vs MRSA (μg/ml) MRSE (MRSE),FAB-I inhibition %@1 μM (Fab I),also measured
O=C1CCc2cc(/C=C/C(=O)N3CC=C(Cc4ccccc4)CC3)cnc2N1 [Compound 62],78.5%,54.2%,0.25 µg/mL,0.5 µg/mL,0.5 µg/mL,76%,–
O=C1CCc2cc(/C=C/C(=O)N3CC=C(Cc4cccc(F)c4)CC3)cnc2N1 [Compound 65],90.6%,75.0%,0.25 µg/mL,0.25 µg/mL,0.5 µg/mL,90%,–
